Reference: ChEMBL document CHEMBL5338723, “Emerging Target-Directed Approaches for the Treatment and Diagnosis of Microbial Infections” (J Med Chem, 2023)
Values after ≈ are worked out from the molar mass of the structure shown. One block for each molecule: values may come before it.

Legend:
Staphylococcus aureus [1] = experiment: Antibacterial activity against Staphylococcus aureus assessed as microbial growth inhibition; format: functional, organism-based
Staphylococcus aureus [2] = experiment: Potency index, ratio of ciprofloxacin MIC to test compound MIC for antimicrobial activity against Staphylococcus aureus; format: functional, organism-based
Acinetobacter baumannii [3] = experiment: Antimicrobial activity against Acinetobacter baumannii ATCC 17961 assessed as microbial growth inhibition; format: functional
Acinetobacter baumannii [4] = experiment: Antimicrobial activity against Acinetobacter baumannii ARC 3484 assessed as microbial growth inhibition; format: functional
Acinetobacter baumannii [5] = experiment: Antimicrobial activity against Acinetobacter baumannii ARC 3486 assessed as microbial growth inhibition; format: functional
Acinetobacter baumannii [6] = experiment: Antimicrobial activity against Acinetobacter baumannii ARC 5079 assessed as microbial growth inhibition; format: functional
Acinetobacter baumannii [7] = experiment: Antimicrobial activity against Acinetobacter baumannii ARC 5081 assessed as microbial growth inhibition; format: functional
Acinetobacter baumannii [8] = experiment: Antimicrobial activity against Acinetobacter baumannii ATCC 17978 assessed as microbial growth inhibition; format: functional
Acinetobacter baumannii [9] = experiment: Antimicrobial activity against Acinetobacter baumannii ATCC 17978 pNT165 producing carbapenamase assessed as microbial growth inhibition; format: functional
Acinetobacter baumannii [10] = experiment: Antimicrobial activity against Acinetobacter baumannii ATCC BAA 1710 assessed as microbial growth inhibition; format: functional
Acinetobacter baumannii [11] = experiment: Antimicrobial activity against Acinetobacter baumannii ATCC 17978 pNT221 assessed as microbial growth inhibition; format: functional
Acinetobacter baumannii [12] = experiment: Antimicrobial activity against Acinetobacter baumannii ATCC 17978 pNT255 assessed as microbial growth inhibition; format: functional
Acinetobacter baumannii [13] = experiment: Antimicrobial activity against Acinetobacter baumannii ATCC 17978 pNT320 producing cephalosporinase assessed as microbial growth inhibition; format: functional
Acinetobacter baumannii [14] = experiment: Antimicrobial activity against Acinetobacter baumannii ATCC BAA 1793 assessed as microbial growth inhibition; format: functional
Acinetobacter baumannii [15] = experiment: Antimicrobial activity against Acinetobacter baumannii ATCC BAA 1797 assessed as microbial growth inhibition; format: functional
Acinetobacter baumannii [16] = experiment: Antimicrobial activity against Acinetobacter baumannii ATCC BAA 1800 assessed as microbial growth inhibition; format: functional
Salmonella typhimurium = experiment: Antimicrobial activity against Salmonella enterica subsp. enterica serovar Typhimurium assessed as increase in microbial growth inhibition; format: functional
Salmonella enteritidis = experiment: Antimicrobial activity against Salmonella enterica subsp. enterica serovar Enteritidis assessed as increase in microbial growth inhibition; format: functional
Acinetobacter baumannii [17] = experiment: Antimicrobial activity against Acinetobacter baumannii ATCC 17978 assessed as microbial growth inhibition under iron-deficient condition; format: functional
Pseudomonas aeruginosa [18] = experiment: Antibacterial activity against Wild type Pseudomonas aeruginosa KW799 assessed as microbial growth inhibition incubated for 20 hrs in iron depleted media by CLSI protocol based broth microdilution method; format: functional
Pseudomonas aeruginosa [19] = experiment: Antibacterial activity against Pseudomonas aeruginosa KW799/61 assessed as microbial growth inhibition incubated for 20 hrs in iron depleted media by CLSI protocol based broth microdilution method; format: functional
Pseudomonas aeruginosa [20] = experiment: Antibacterial activity against Pseudomonas aeruginosa PAO1 assessed as microbial growth inhibition incubated for 20 hrs in iron depleted media by CLSI protocol based broth microdilution method; format: functional
Pseudomonas aeruginosa [21] = experiment: Antibacterial activity against Pseudomonas aeruginosa Pa4 assessed as microbial growth inhibition incubated for 20 hrs in iron depleted media by CLSI protocol based broth microdilution method; format: functional
Streptococcus pneumoniae = experiment: Antimicrobial activity against Streptococcus pneumoniae assessed as microbial growth inhibition; format: functional
Yersinia enterocolitica = experiment: Antimicrobial activity against Yersinia enterocolitica assessed as microbial growth inhibition; format: functional
[22] = Cytotoxicity against human L02 assessed as lethal dose; format: toxicity, cell-based; conditions: L02 cells, read-out: LD50 (the source's name)

Molecule: CC1=C(C(=O)O)N2C(=O)[C@@H](NC(=O)[C@H](NC(=O)CCCc3cn(CCOCCOCCOCCNC(=O)c4cc(O)c(O)c(C(=O)N[C@H]5COC(=O)[C@@H](NC(=O)c6cccc(O)c6O)COC(=O)[C@@H](NC(=O)c6cccc(O)c6O)COC5=O)c4)nn3)c3ccccc3)[C@H]2SC1
- MIC (Salmonella typhimurium): 0.01 µM
- MIC (Salmonella enteritidis): 0.01 µM

Molecule: CC(=O)Oc1cccc(C(=O)NCCCC(CCCNC(=O)c2cccc(OC(C)=O)c2OC(C)=O)(CCCNC(=O)c2cccc(OC(C)=O)c2OC(C)=O)NC(=O)CCC(=O)NC(C(=O)NC2C(=O)N3C2SC(C)(C)[C@@H]3C(=O)O)c2ccccc2)c1OC(C)=O (some centres not stated)
- MIC (Pseudomonas aeruginosa [18]): 0.05 µM (≈ 0.0647 µg/mL)
- MIC (Pseudomonas aeruginosa [19]): 0.05 µM (≈ 0.0647 µg/mL)
- MIC (Pseudomonas aeruginosa [20]): 0.05 µM (≈ 0.0647 µg/mL)
- MIC (Pseudomonas aeruginosa [21]): 0.05 µM (≈ 0.0647 µg/mL)

Molecule: CN(Cc1cnc2nc(N)nc(N)c2n1)c1ccc(C(=O)N[C@@H](CCC(=O)O)C(=O)O)cc1 [METHOTREXATE]
- MIC (Streptococcus pneumoniae): ≥ 2.2 µM
- MIC (Yersinia enterocolitica): > 35.2 µM
- CC50 [22]: 8 nM

Molecule: C[C@H]1OC(c2cccc(O)c2O)=N[C@@H]1C(=O)N[C@@H](COC(=O)c1cccc(O)c1O)C(=O)NCCCCN(O)C(=O)N[C@@H](C(=O)N[C@@H]1C(=O)N2C(C(=O)O)=C(Cl)CS[C@H]12)c1ccccc1
- MIC (Acinetobacter baumannii [17]): 0.5 µg/mL (≈ 0.532 µM)

Molecule: C[C@@H](O)[C@H]1C(=O)N2C(C(=O)O)=C(S[C@H]3C[C@@H](C(=O)N(C)C)N(C(=O)CCCc4cn(CCOCCOCCOCCNC(=O)c5cc(O)c(O)c(C(=O)N[C@H]6COC(=O)[C@@H](NC(=O)c7cc([C@@H]8O[C@H](CO)[C@@H](O)[C@H](O)[C@H]8O)cc(O)c7O)COC(=O)[C@@H](NC(=O)c7cc([C@@H]8O[C@H](CO)[C@@H](O)[C@H](O)[C@H]8O)cc(O)c7O)COC6=O)c5)nn4)C3)[C@H](C)[C@H]12
- MIC (Salmonella typhimurium): 0.01 µM
- MIC (Salmonella enteritidis): 0.01 µM

Molecule: C[C@H]1OC(c2cccc(O)c2O)=N[C@@H]1C(=O)N[C@@H](COC(=O)c1cc(N[C@@H](C(=O)N[C@@H]2C(=O)N3C(C(=O)O)=C(Cl)CS[C@H]23)c2ccccc2)cc(O)c1O)C(=O)NCCCCN(O)C=O
- MIC (Acinetobacter baumannii [17]): 0.5 µg/mL (≈ 0.532 µM)

Continued, in another order:

- MIC (Staphylococcus aureus [1]): 0.093 µM
Molecule: Galbofloxacin
- Ratio (Staphylococcus aureus [2]): 10

- MIC (Acinetobacter baumannii [3]): 0.2 µM (≈ 0.404 µg/mL)
- MIC (Acinetobacter baumannii [4]): 0.2 µM (≈ 0.404 µg/mL)
- MIC (Acinetobacter baumannii [5]): 0.2 µM (≈ 0.404 µg/mL)
- MIC (Acinetobacter baumannii [6]): 0.2 µM (≈ 0.404 µg/mL)
- MIC (Acinetobacter baumannii [7]): 0.2 µM (≈ 0.404 µg/mL)
- MIC (Acinetobacter baumannii [8]): 0.2 µM (≈ 0.404 µg/mL)
- MIC (Acinetobacter baumannii [9]): 0.2 µM (≈ 0.404 µg/mL)
- MIC (Acinetobacter baumannii [10]): 0.2 µM (≈ 0.404 µg/mL)
- MIC (Acinetobacter baumannii [11]): 0.2 µM (≈ 0.404 µg/mL)
- MIC (Acinetobacter baumannii [12]): 0.2 µM (≈ 0.404 µg/mL)
- MIC (Acinetobacter baumannii [13]): 0.2 µM (≈ 0.404 µg/mL)
- MIC (Acinetobacter baumannii [14]): 0.2 µM (≈ 0.404 µg/mL)
- MIC (Acinetobacter baumannii [15]): 0.2 µM (≈ 0.404 µg/mL)
- MIC (Acinetobacter baumannii [16]): 0.2 µM (≈ 0.404 µg/mL)
Molecule: CCCCCCCCCC(=O)N[C@@H](Cc1c[nH]c2ccccc12)C(=O)N[C@H](CC(N)=O)C(=O)N[C@@H](CC(=O)O)C(=O)N[C@@H]1C(=O)NCC(=O)N[C@@H](CCCNC(=O)CN(CCCCNC(=O)c2cccc(O)c2O)C(=O)c2cccc(O)c2O)C(=O)N[C@@H](CC(=O)O)C(=O)N[C@H](C)C(=O)N[C@@H](CC(=O)O)C(=O)NCC(=O)N[C@H](CO)C(=O)N[C@@H](C(C)CC(=O)O)C(=O)N[C@@H](CC(=O)c2ccccc2N)C(=O)O[C@@H]1C (some centres not stated)

- MIC (Acinetobacter baumannii [17]): 64 µg/mL (≈ 174 µM)
Molecule: N[C@@H](C(=O)N[C@@H]1C(=O)N2C(C(=O)O)=C(Cl)CS[C@H]12)c1ccccc1 [CEFACLOR ANHYDROUS]

- MIC (Salmonella typhimurium): 0.01 µM
- MIC (Salmonella enteritidis): 0.01 µM
Molecule: CC1(C)S[C@@H]2[C@H](NC(=O)[C@H](NC(=O)CCCc3cn(CCOCCOCCOCCNC(=O)c4cc(O)c(O)c(C(=O)N[C@H]5COC(=O)[C@@H](NC(=O)c6cc([C@@H]7O[C@H](CO)[C@@H](O)[C@H](O)[C@H]7O)cc(O)c6O)COC(=O)[C@@H](NC(=O)c6cc([C@@H]7O[C@H](CO)[C@@H](O)[C@H](O)[C@H]7O)cc(O)c6O)COC5=O)c4)nn3)c3ccccc3)C(=O)N2[C@H]1C(=O)O
